# Entries after “also recorded” stand apart in the source; their conditions may differ.
# Columns and labels:
# B. bronchoseptica = assay: Minimum inhibitory concentration, disk diffusion susceptibility testing; format: cell-based
# Description: (§1) The activity of a Fenicol Compound against a bacteria is determined using standard dilution tests. For example, the minimum inhibitory concentrations can be determined using the disk diffusion susceptibility testing method described in Clinical Microbiology Procedures Handbook, volume 1, edited by Henry D. Isenberg, American Society for Microbiology, 1992, section 5.1 or the well known method of Bauer et al. “Antibiotic Susceptibility Testing by a Standardized Single Disc Method,” Amer. J. Clin. Pathol., 45, p. 493-496.
# B. subtitis = assay: as above; format: cell-based
# Description: as §1
# E. coli = assay: as above; format: cell-based; details: for Minimum Inhibitory Concentration: E. coli
# Description: as §1
# E. faecalis = assay: as above; format: cell-based
# Description: as §1
# K. pneumoniae = assay: as above; format: cell-based
# Description: as §1
# S. aureaus = assay: as above; format: cell-based
# Description: as §1
# S. pyogenes = assay: as above; format: cell-based
# Description: as §1
# [1] = Serum concentration as a function of time after subcutaneous administration to dogs (HPLC); format: in vivo; details: for clearance of each isomer, serum concentration as percent of CmaxR or CmaxS as a function of time: 40 mg/kg of A2 as equimolar mixture of (R) and (S) acylamido configuration; for clearance rate: compared with NUFLOR®
# Description: The pharmaceutical composition was then administered to dogs at a dose of 40 mg/kg. Blood samples were taken from the dog at various time points and serum separated using standard methods well known to those skilled in the art. The serum was then analyzed using HPLC according to the following procedure: A C18 Sep-Pak Plus® cartridge (Sep-Pak) (commercially available from Waters of Milford, Mass.) was rinsed with 5 mL of methanol followed by 5 mL of water and loaded with 1 mL of serum. After loading, the Sep-Pak was washed with 2 mL of water, 2 mL of 15% aqueous acetonitrile, and 3 mL of hexane. The Sep-Pak was then eluted with 4 mL of acetonitrile and the eluant collected. The acetonitrile was evaporated using a stream of nitrogen to provide a residue and the resulting residue was reconstituted with 1 mL of 25% aqueous acetonitrile to provide an assay solution. 50 μL of the assay solution was then analyzed by HPCL using high pressure liquid chromatography equipped with a Beckman Coulter Ultraphere C-18 5 μM×4.6 mm×250 mm analytical column eluted at a flow of 1.2 mL/min. using a gradient of water and acetonitrile according to the following profile: [table] The HPLC system was interfaced to a UV detector operated at 223 nm. […] The pharmaceutical composition was then administered to dogs subcutaneously at a a dose of 40 mg/kg. Blood samples were taken from the dogs at various time points and the blood samples treated as described above. The serum was then analyzed using the HPLC procedure described above. […] The pharmaceutical composition was then administered to dogs subcutaneously at a a dose of 40 mg/kg. Blood samples were taken from the dogs at various time points and the blood samples treated as described above. The serum was then analyzed using the HPLC procedure described above. […] The maximum serum level was determined for each isomer (CmaxR and CmaxS, respectively).
maximum serum concentration ([1]; 40 mg/kg),SMILES,Minimum Inhibitory Concentration (B. bronchoseptica) [µg/mL],Minimum Inhibitory Concentration (B. subtitis) [µg/mL],Minimum Inhibitory Concentration (E. coli) [µg/mL],Minimum Inhibitory Concentration (K. pneumoniae) [µg/mL],Minimum Inhibitory Concentration (S. aureaus) [µg/mL],Minimum Inhibitory Concentration (S. pyogenes) [µg/mL],also measured
–,CC(F)C(=O)NC(CF)C(O)c1ccc(S(C)(=O)=O)cc1 (mixture of isomers) [E5 + I5 (Racemic Mixture)],>10,1,5,5,5,5,Minimum Inhibitory Concentration (E. faecalis): 3 µg/mL
–,CC(Cl)C(=O)NC(CF)C(O)c1ccc(S(C)(=O)=O)cc1 (mixture of isomers) [E2 + I2 (Racemic Mixture)],3,0.5,3,5,2,–,–
–,CS(=O)(=O)c1ccc([C@@H](O)[C@@H](CF)NC(=O)CCl)cc1 [D-threo-2-chloro-N-[1-(fluoromethyl)-2-hydroxy-2-[4-methylsulfonyl)phenyl]ethyl]-acetamide],3,0.5,3,5,2,–,–
–,C[C@H](C(=O)N[C@H](CF)[C@H](O)c1ccc(S(C)(=O)=O)cc1)C(F)(F)F [A2 wherein the acylamido group is present in the (R) stereoc],–,–,–,–,–,–,"clearance of each isomer, serum concentration as percent of CmaxR or CmaxS as a function of time ([1]; 40 mg/kg): decreases much more slowly"
–,C[C@@H](C(=O)N[C@H](CF)[C@H](O)c1ccc(S(C)(=O)=O)cc1)C(F)(F)F,–,–,–,–,–,–,"clearance of each isomer, serum concentration as percent of CmaxR or CmaxS as a function of time [1]: decreases rapidly"
~5 µg/mL,CC(C(=O)NC(CF)C(O)c1ccc(S(C)(=O)=O)cc1)C(F)(F)F (mixture of isomers) [A2],–,5,7,–,7,5,Minimum Inhibitory Concentration (E. faecalis): 5 µg/mL; serum concentration compared with NUFLOR® ([1]; 40 mg/kg): much higher serum concentration; clearance rate ([1]; 40 mg/kg): much slower than the clearance rate of NUFLOR®; also recorded: cleared more slowly than is NUFLOR®
~7 µg/mL,CC(C)C(=O)N[C@H](CF)[C@H](O)c1ccc(S(C)(=O)=O)cc1 [A1],–,2,5,–,3,5,serum concentration compared with NUFLOR® ([1]; 40 mg/kg): higher serum concentration than NUFLOR®; clearance rate ([1]; 40 mg/kg): cleared much more slowly; also recorded: cleared more slowly than NUFLOR®
–,C[C@H](C(=O)N[C@H](CF)[C@H](O)c1ccc(S(C)(=O)=O)cc1)C(F)(F)F [A2 wherein the acylamido group has the (R) stereochemical co],–,–,–,–,–,–,"clearance of each isomer, serum concentration as percent of CmaxR or CmaxS as a function of time ([1]; 40 mg/kg): cleared more slowly"

SMILES,maximum serum concentration ([1]; 40 mg/kg),Minimum Inhibitory Concentration (B. bronchoseptica) [µg/mL],Minimum Inhibitory Concentration (B. subtitis) [µg/mL],Minimum Inhibitory Concentration (E. coli) [µg/mL],Minimum Inhibitory Concentration (K. pneumoniae) [µg/mL],Minimum Inhibitory Concentration (S. aureaus) [µg/mL],Minimum Inhibitory Concentration (S. pyogenes) [µg/mL],also measured
"CS(=O)(=O)c1ccc([C@@H](O)[C@@H](CF)NC(=O)C(Cl)Cl)cc1 [Fluorfenicol, reference compound]",less than 0.8 μg/mL,–,–,–,–,–,–,"MIC (B. bronchoseptica): 1 µg/mL; MIC (B. subtitis): 1 µg/mL; MIC (E. coli; Escherichia coli, read-out: Minimum Inhibitory Concentration): 1 µg/mL; MIC (E. faecalis; Enterococcus faecalis): 3 µg/mL; MIC (K. pneumoniae; Klebsiella pneumoniae): 3 µg/mL; MIC (S. aureaus): 1 µg/mL; MIC (S. pyogenes; Streptococcus pyogenes): 1 µg/mL"
